Experimental data as given in ChEMBL document CHEMBL4507324 (2021).

Legend:
Conditions in all cases: Compound concentration 100.0 nM
[1] = test system: Tyrosine-protein kinase ABL1 (Homo sapiens), P00519 [F317I]
[2] = test system: Tyrosine-protein kinase ABL1 (Homo sapiens), P00519 [F317L]
[3] = test system: Tyrosine-protein kinase ABL1 (Homo sapiens), P00519 [F317L]; remark: listed apart in the source
[4] = target: Activin receptor type-1-like (Homo sapiens) (UniProt P37023)
[5] = target: Aurora kinase C (Homo sapiens) (UniProt Q9UQB9)
[6] = target: Bone morphogenetic protein receptor type-1A (Homo sapiens) (UniProt P36894)
[7] = target: Serine/threonine-protein kinase BRSK2 (Homo sapiens) (UniProt Q8IWQ3)
[8] = target: Mitotic checkpoint serine/threonine-protein kinase BUB1 (Homo sapiens) (UniProt O43683)
[9] = target: Cyclin-dependent kinase 3 (Homo sapiens) (UniProt Q00526)
[10] = target: Cyclin-dependent kinase-like 3 (Homo sapiens) (UniProt Q8IVW4)
[11] = target: Casein kinase II subunit alpha' (Homo sapiens) (UniProt P19784)
[12] = target: Death-associated protein kinase 3 (Homo sapiens) (UniProt O43293)
[13] = target: Serine/threonine-protein kinase DCLK1 (Homo sapiens) (UniProt O15075)
[14] = target: Ephrin type-A receptor 6 (Homo sapiens) (UniProt Q9UF33)
[15] = target: Serine/threonine-protein kinase/endoribonuclease IRE1 (Homo sapiens) (UniProt O75460)
[16] = target: Focal adhesion kinase 1 (Homo sapiens) (UniProt Q05397)
[17] = test system: Receptor-type tyrosine-protein kinase FLT3 (Homo sapiens), P36888 [D835H]
[18] = target: Vascular endothelial growth factor receptor 3 (Homo sapiens) (UniProt P35916)
[19] = target: G protein-coupled receptor kinase 3 (Homo sapiens) (UniProt P35626)
[20] = target: Rhodopsin kinase GRK7 (Homo sapiens) (UniProt Q8WTQ7)
[21] = target: Inhibitor of nuclear factor kappa-B kinase subunit alpha (Homo sapiens) (UniProt O15111)
[22] = target: Mitogen-activated protein kinase 9 (Homo sapiens) (UniProt P45984)
[23] = target: Mitogen-activated protein kinase 10 (Homo sapiens) (UniProt P53779)
[24] = target: MAP/microtubule affinity-regulating kinase 3 (Homo sapiens) (UniProt P27448)
[25] = target: Dual specificity mitogen-activated protein kinase kinase 1 (Homo sapiens) (UniProt Q02750)
[26] = target: Serine/threonine-protein kinase Nek4 (Homo sapiens) (UniProt P51957)
[27] = target: Serine/threonine-protein kinase Nek9 (Homo sapiens) (UniProt Q8TD19)
[28] = target: Mitogen-activated protein kinase kinase kinase 14 (Homo sapiens) (UniProt Q99558)
[29] = target: Cyclin-dependent kinase 15 (Homo sapiens) (UniProt Q96Q40)
[30] = target: Phosphatidylinositol 4-phosphate 3-kinase C2 domain-containing subunit beta (Homo sapiens) (UniProt O00750)
[31] = target: Phosphatidylinositol 4,5-bisphosphate 3-kinase catalytic subunit gamma isoform (Homo sapiens) (UniProt P48736)
[32] = target: Serine/threonine-protein kinase N2 (Homo sapiens) (UniProt Q16513)
[33] = target: Serine/threonine-protein kinase D1 (Homo sapiens) (UniProt Q15139)
[34] = target: Interferon-induced, double-stranded RNA-activated protein kinase (Homo sapiens) (UniProt P19525)
[35] = target: Proto-oncogene tyrosine-protein kinase receptor Ret (Homo sapiens) (UniProt P07949)
[36] = target: Receptor-interacting serine/threonine-protein kinase 1 (Homo sapiens) (UniProt Q13546)
[37] = target: Proto-oncogene tyrosine-protein kinase ROS (Homo sapiens) (UniProt P08922)
[38] = target: Ribosomal protein S6 kinase alpha-4 (Homo sapiens) (UniProt O75676)
[39] = target: Ribosomal protein S6 kinase alpha-1 (Homo sapiens) (UniProt Q15418)
[40] = target: Ribosomal protein S6 kinase alpha-6 (Homo sapiens) (UniProt Q9UK32)
[41] = target: SRSF protein kinase 3 (Homo sapiens) (UniProt Q9UPE1)
[42] = target: Serine/threonine-protein kinase 33 (Homo sapiens) (UniProt Q9BYT3)
[43] = target: TRAF2 and NCK-interacting protein kinase (Homo sapiens) (UniProt Q9UKE5)
[44] = target: Activated CDC42 kinase 1 (Homo sapiens) (UniProt Q07912)
[45] = target: Tyrosine-protein kinase ZAP-70 (Homo sapiens) (UniProt P43403)

Tyrosine-protein kinase ABL1 (Homo sapiens), P00519 [F317L], sequence (P00519 whole entry F317L): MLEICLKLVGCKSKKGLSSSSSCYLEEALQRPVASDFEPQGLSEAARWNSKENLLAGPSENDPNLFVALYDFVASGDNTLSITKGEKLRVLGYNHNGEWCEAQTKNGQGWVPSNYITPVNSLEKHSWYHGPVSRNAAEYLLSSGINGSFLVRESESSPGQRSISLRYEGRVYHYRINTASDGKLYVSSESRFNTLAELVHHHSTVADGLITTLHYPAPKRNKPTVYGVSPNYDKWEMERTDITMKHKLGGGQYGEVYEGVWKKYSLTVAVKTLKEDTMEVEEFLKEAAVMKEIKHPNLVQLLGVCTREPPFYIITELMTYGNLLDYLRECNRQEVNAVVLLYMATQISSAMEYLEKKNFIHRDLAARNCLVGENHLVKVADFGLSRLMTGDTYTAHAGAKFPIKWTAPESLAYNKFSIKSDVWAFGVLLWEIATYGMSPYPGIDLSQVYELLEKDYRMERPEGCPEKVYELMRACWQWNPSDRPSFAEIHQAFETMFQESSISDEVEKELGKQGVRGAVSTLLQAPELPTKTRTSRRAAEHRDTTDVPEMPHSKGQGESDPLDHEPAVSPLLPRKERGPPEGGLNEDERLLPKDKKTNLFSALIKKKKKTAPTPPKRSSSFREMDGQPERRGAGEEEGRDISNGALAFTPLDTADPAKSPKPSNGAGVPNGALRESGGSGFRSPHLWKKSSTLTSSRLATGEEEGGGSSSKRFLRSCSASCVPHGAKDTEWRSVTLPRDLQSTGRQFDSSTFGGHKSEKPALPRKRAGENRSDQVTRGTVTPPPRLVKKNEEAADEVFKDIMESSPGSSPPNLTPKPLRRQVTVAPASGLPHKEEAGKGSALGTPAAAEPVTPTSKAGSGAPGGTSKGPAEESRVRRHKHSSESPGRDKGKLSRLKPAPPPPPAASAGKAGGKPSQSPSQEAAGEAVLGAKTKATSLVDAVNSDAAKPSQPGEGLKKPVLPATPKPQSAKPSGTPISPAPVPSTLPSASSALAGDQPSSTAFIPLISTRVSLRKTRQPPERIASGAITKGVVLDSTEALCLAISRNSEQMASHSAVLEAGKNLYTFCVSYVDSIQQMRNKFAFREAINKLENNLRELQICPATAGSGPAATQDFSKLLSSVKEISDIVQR
Phosphatidylinositol 4,5-bisphosphate 3-kinase catalytic subunit gamma isoform (Homo sapiens), sequence (P48736 whole entry, looked up, canonical isoform): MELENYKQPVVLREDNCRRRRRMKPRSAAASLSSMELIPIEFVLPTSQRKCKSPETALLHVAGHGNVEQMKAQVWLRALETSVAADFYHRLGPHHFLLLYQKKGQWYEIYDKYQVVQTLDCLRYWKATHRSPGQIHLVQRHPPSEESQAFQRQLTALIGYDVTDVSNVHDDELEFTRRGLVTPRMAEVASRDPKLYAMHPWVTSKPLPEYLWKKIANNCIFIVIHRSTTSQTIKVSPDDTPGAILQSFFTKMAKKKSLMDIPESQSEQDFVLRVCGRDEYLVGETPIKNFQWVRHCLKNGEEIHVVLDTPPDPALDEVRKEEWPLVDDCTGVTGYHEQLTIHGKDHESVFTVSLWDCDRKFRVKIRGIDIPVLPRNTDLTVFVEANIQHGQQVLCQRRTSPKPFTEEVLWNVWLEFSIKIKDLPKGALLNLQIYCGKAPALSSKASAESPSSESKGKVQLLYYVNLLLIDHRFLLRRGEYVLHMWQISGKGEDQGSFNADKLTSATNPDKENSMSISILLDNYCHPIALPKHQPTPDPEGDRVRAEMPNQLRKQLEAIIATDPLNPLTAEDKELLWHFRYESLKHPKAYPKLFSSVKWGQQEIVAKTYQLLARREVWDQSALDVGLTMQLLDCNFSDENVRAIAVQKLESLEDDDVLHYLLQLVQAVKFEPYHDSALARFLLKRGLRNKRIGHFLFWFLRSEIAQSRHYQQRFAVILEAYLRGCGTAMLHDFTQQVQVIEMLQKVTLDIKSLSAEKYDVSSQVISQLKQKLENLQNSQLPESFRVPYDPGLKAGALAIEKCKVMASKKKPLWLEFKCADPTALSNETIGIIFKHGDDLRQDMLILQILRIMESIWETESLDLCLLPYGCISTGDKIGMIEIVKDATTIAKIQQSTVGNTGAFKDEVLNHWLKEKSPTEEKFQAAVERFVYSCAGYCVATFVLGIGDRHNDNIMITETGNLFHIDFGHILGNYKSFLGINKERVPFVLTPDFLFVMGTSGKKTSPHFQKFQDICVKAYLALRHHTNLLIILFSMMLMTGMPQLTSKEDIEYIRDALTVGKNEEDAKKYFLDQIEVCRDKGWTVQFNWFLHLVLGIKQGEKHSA
SRSF protein kinase 3 (Homo sapiens), sequence (Q9UPE1 whole entry): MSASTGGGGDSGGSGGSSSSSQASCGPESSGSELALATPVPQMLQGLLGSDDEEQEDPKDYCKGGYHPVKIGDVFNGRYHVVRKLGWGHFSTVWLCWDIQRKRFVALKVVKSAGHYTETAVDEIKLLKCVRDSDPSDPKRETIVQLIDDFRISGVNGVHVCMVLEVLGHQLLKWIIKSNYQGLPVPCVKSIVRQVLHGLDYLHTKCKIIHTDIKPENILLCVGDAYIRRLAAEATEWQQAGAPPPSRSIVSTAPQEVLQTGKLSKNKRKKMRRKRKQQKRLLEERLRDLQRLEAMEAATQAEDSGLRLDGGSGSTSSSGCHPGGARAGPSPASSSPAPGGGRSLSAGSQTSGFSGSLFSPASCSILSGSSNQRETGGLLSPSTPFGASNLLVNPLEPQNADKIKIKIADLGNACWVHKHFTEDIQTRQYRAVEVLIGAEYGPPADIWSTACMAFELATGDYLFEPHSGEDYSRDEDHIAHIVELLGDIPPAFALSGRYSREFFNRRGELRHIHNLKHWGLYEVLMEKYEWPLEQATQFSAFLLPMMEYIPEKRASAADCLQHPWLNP
Activated CDC42 kinase 1 (Homo sapiens), sequence (Q07912 whole entry, looked up): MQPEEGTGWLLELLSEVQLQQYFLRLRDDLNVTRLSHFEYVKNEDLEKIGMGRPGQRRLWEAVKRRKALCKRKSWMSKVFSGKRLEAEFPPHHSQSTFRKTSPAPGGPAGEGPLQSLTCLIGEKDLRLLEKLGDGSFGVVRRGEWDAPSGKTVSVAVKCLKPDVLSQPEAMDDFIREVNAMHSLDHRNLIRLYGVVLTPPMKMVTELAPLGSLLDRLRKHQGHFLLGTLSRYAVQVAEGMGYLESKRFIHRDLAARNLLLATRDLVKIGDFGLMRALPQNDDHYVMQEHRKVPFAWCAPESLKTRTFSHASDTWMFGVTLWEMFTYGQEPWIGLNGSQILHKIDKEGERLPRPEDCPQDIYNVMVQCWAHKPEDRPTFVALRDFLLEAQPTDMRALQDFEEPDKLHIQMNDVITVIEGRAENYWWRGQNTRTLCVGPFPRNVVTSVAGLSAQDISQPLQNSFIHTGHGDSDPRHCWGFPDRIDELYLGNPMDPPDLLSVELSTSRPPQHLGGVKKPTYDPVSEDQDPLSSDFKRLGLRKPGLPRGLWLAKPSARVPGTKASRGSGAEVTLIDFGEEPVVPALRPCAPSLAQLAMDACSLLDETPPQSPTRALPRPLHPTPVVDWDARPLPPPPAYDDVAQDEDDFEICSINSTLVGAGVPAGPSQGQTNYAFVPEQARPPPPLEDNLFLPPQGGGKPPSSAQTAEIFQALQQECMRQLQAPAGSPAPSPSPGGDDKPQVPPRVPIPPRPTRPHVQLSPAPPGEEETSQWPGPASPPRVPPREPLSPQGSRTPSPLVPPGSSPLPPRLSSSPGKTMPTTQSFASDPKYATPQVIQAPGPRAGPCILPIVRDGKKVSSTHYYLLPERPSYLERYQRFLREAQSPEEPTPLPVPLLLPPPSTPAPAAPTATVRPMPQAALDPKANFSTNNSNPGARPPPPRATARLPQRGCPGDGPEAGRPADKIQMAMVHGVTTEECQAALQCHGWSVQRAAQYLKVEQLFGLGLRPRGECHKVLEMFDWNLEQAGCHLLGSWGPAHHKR
Ephrin type-A receptor 6 (Homo sapiens), sequence (Q9UF33 whole entry): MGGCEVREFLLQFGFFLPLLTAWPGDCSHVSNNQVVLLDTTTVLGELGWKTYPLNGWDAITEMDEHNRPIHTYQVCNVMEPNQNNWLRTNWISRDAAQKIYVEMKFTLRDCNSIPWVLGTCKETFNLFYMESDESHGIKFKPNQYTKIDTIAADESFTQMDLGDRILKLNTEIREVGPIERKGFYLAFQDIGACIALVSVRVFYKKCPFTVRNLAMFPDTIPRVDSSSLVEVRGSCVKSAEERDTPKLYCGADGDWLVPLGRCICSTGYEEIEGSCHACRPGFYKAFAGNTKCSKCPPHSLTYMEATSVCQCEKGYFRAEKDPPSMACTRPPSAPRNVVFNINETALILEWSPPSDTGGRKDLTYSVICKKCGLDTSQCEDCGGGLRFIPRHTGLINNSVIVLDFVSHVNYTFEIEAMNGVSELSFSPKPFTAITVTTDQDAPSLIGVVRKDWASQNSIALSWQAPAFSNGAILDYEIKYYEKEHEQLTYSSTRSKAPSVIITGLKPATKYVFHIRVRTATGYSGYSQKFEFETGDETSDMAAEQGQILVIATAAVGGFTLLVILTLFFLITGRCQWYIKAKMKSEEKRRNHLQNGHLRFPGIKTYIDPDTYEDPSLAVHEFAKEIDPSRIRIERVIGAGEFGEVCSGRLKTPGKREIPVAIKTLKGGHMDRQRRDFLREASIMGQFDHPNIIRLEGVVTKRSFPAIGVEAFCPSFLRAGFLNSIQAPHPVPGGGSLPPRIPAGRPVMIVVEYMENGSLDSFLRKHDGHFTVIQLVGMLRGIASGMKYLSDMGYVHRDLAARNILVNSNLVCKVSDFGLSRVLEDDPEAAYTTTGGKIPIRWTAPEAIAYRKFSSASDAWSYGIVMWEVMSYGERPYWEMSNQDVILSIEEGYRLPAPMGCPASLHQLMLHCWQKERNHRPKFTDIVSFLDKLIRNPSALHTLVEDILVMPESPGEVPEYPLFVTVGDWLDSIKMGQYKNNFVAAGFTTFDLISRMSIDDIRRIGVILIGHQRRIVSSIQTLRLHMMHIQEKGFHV
Tyrosine-protein kinase ABL1 (Homo sapiens), P00519 [F317I], sequence (P00519 whole entry F317I): as the sequence (P00519 whole entry F317L) above, with L317I counted along it

**Q.** Which residual activity [1] does the source give for `CS(=O)(=O)N1CCCC(NC(=O)[C@H](CCC2CCCCC2)NC(=O)c2ccc(CNc3ncnc4c3nnn4-c3ccccc3)cc2)C1` (stereo not given in full) [SR-301] here?
**A.** Its residual activity is 88%.

**Q.** And the residual activity [2]?
**A.** The residual activity was 100%.

**Q.** And the residual activity [3]?
**A.** The residual activity was 91%.

**Q.** And the residual activity [4]?
**A.** The residual activity was 97%.

**Q.** And the residual activity [5]?
**A.** The residual activity was 78%.

**Q.** What about the residual activity [6] of the same compound?
**A.** The residual activity was 90%.

**Q.** And the residual activity [7]?
**A.** Its residual activity is 79%.

**Q.** And the residual activity [8]?
**A.** Its residual activity is 100%.

**Q.** What about the residual activity [9] of the same compound?
**A.** Its residual activity is 82%.

**Q.** What about the residual activity [10] of the same compound?
**A.** The residual activity was 96%.

**Q.** And the residual activity [11]?
**A.** The residual activity was 85%.

**Q.** And the residual activity [12]?
**A.** Its residual activity is 88%.

**Q.** What about the residual activity [13] of the same compound?
**A.** Its residual activity is 100%.

**Q.** What about the residual activity [14] of the same compound?
**A.** Its residual activity is 100%.

**Q.** And the residual activity [15]?
**A.** Its residual activity is 100%.

**Q.** And the residual activity [16]?
**A.** Its residual activity is 100%.

**Q.** What about the residual activity [17] of the same compound?
**A.** Its residual activity is 94%.

**Q.** And the residual activity [18]?
**A.** Its residual activity is 81%.

**Q.** And the residual activity [19]?
**A.** The residual activity was 100%.

**Q.** What about the residual activity [20] of the same compound?
**A.** Its residual activity is 100%.

**Q.** And the residual activity [21]?
**A.** Its residual activity is 100%.

**Q.** And the residual activity [22]?
**A.** Its residual activity is 83%.

**Q.** And the residual activity [23]?
**A.** Its residual activity is 100%.

**Q.** What about the residual activity [24] of the same compound?
**A.** The residual activity was 100%.

**Q.** What about the residual activity [25] of the same compound?
**A.** Its residual activity is 100%.

**Q.** What about the residual activity [26] of the same compound?
**A.** The residual activity was 100%.

**Q.** What about the residual activity [27] of the same compound?
**A.** The residual activity was 100%.

**Q.** What about the residual activity [28] of the same compound?
**A.** The residual activity was 83%.

**Q.** And the residual activity [29]?
**A.** The residual activity was 74%.

**Q.** And the residual activity [30]?
**A.** Its residual activity is 95%.

**Q.** And the residual activity [31]?
**A.** The residual activity was 85%.

**Q.** What about the residual activity [32] of the same compound?
**A.** Its residual activity is 95%.

**Q.** What about the residual activity [33] of the same compound?
**A.** The residual activity was 91%.

**Q.** What about the residual activity [34] of the same compound?
**A.** The residual activity was 55%.

**Q.** And the residual activity [35]?
**A.** Its residual activity is 87%.

**Q.** What about the residual activity [36] of the same compound?
**A.** Its residual activity is 94%.

**Q.** And the residual activity [37]?
**A.** Its residual activity is 91%.

**Q.** What about the residual activity [38] of the same compound?
**A.** Its residual activity is 86%.

**Q.** What about the residual activity [39] of the same compound?
**A.** Its residual activity is 100%.

**Q.** What about the residual activity [40] of the same compound?
**A.** Its residual activity is 100%.

**Q.** And the residual activity [41]?
**A.** The residual activity was 100%.

**Q.** What about the residual activity [42] of the same compound?
**A.** The residual activity was 84%.

**Q.** And the residual activity [43]?
**A.** The residual activity was 45%.

**Q.** What about the residual activity [44] of the same compound?
**A.** Its residual activity is 91%.

**Q.** And the residual activity [45]?
**A.** The residual activity was 100%.

**Q.** Which results are given for `CS(=O)(=O)N1CCCC(NC(=O)[C@H](CCC2CCCCC2)NC(=O)c2ccc(CNC(=O)c3cnc4ccccn34)cc2)C1` (stereo not given in full) [SR-302]?
**A.** residual activity [1]: 80%; residual activity [2]: 32%; residual activity [3]: 100%; residual activity [4]: 96%; residual activity [5]: 98%; residual activity [6]: 94%; residual activity [7]: 100%; residual activity [8]: 100%; residual activity [9]: 100%; residual activity [10]: 100%; residual activity [11]: 100%; residual activity [12]: 90%; residual activity [13]: 99%; residual activity [14]: 100%; residual activity [15]: 100%; residual activity [16]: 92%; residual activity [17]: 100%; residual activity [18]: 95%; residual activity [19]: 100%; residual activity [20]: 91%; residual activity [21]: 100%; residual activity [22]: 90%; residual activity [23]: 85%; residual activity [24]: 74%; residual activity [25]: 100%; residual activity [26]: 100%; residual activity [27]: 100%; residual activity [28]: 100%; residual activity [29]: 95%; residual activity [30]: 100%; residual activity [31]: 96%; residual activity [32]: 100%; residual activity [33]: 93%; residual activity [34]: 47%; residual activity [35]: 85%; residual activity [36]: 88%; residual activity [37]: 100%; residual activity [38]: 97%; residual activity [39]: 92%; residual activity [40]: 82%; residual activity [41]: 100%; residual activity [42]: 100%; residual activity [43]: 100%; residual activity [44]: 70%; residual activity [45]: 100%
